In article PMC5259791 (Scientific Reports, 2017):
Where a chain is given by its changes, count along the chain named.

Key:
PPARγ LBD = target: T1, PPARγ LBD (Homo sapiens, UniProt P37231); assay: SPR on immobilized PPARγ LBD; assay type: binding
T1 construct: Recombinant human PPARγ-LBD, consisting of the region 195–477 of PPARγ; purchased Bertin-Pharma
T1 sequence (P37231 195-477 isoform P37231-2): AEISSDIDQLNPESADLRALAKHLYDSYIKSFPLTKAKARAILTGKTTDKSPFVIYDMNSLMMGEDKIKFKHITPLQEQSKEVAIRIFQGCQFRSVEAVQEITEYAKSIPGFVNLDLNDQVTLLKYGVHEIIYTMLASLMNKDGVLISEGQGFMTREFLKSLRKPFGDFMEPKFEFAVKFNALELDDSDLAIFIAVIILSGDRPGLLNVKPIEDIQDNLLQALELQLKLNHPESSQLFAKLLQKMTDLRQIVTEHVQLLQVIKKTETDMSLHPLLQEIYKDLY
Protocol: (§1) Conversely, no affinity of the diterpene towards Hsp60 was observed (Fig. 2c).
(§2) SPR analyses were carried out on a BIACORE 3000 instrument (GE-Healthcare). PPARα, PPARγ, PPARδ and HSP60 surfaces were prepared on research−grade CM5 sensor chips (GE Healthcare). Proteins (100 μg/ml in 10 mM CH3COONa, pH 5.0) were immobilized using a standard amine−coupling protocol, to obtain densities of 3–5 kRU. Testing compounds were dissolved in 100% DMSO to obtain 4 mM solutions, and then diluted in PBS containing variable amounts of DMSO, achieving a final DMSO concentration of 0.1%. For each molecule a five−point concentration series (25 nM, 65 nM, 150 nM, 400 nM, 1 μM) was set up. SPR experiments and data elaboration were carried out as reported elsewhere.

Hsp60 [1] = target: T2, Hsp60 (Homo sapiens, UniProt P10809); assay: SPR on immobilized Hsp60; assay type: binding
T2 construct: purchased Tebu-Bio
T2 sequence (P10809 27-573): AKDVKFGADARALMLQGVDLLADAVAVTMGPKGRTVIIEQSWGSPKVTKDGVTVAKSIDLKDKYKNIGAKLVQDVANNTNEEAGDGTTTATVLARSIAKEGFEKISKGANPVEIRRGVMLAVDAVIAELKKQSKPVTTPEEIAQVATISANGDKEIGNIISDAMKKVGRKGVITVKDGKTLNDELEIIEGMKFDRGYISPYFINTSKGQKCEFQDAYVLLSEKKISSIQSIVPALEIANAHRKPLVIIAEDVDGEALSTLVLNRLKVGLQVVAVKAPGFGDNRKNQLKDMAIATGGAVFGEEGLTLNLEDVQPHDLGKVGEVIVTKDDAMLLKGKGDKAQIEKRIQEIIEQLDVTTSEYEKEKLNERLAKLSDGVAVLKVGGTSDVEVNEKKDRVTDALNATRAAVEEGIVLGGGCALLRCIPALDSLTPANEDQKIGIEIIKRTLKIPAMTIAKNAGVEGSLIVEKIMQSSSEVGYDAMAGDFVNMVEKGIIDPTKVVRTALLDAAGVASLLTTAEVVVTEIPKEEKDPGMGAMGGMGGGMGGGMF
Protocol: as §1, §2

PPARγ1 = target: T3, PPARγ1 (Homo sapiens, UniProt P37231); assay: PPRE-luciferase transactivation in HEK293 cells stably expressing exogenous PPARγ; assay type: cell-based
T3 construct: from a transfected PCDNA-3 vector carrying a complete PPARγ cDNA; expressed in transfected cells
T3 sequence (P37231 1-477 isoform P37231-2): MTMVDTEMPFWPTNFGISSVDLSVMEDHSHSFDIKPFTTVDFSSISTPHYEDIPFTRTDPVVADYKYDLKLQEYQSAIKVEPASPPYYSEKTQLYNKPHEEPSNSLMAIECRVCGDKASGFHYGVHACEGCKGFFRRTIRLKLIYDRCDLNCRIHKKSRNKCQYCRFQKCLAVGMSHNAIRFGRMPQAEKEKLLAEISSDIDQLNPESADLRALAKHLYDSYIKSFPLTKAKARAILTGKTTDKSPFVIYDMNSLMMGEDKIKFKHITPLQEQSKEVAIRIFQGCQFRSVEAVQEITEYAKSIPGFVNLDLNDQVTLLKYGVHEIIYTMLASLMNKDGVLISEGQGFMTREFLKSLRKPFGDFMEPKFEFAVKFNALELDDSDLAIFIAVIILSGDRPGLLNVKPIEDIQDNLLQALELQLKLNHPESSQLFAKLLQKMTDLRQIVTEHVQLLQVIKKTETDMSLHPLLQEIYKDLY
Excerpt: These cells were selected as they express a fixed and known amount of PPARγ, so that the differences in luciferase activity can be ascribed to the different ligand used. […] (b) Human HEK293T cells were co-transfected with the PPRE-luciferase reporter gene and the wild-type PPARγ1 or its mutant version (C285A).
(§3) HEK293 cells that stably express an exogenous Flag-tagged PPARγ from a transfected PCDNA-3 vector carrying a complete PPARγ cDNA were used for transfection experiments. The PPRE-Luc plasmid contains a luciferase reporter gene under the transcriptional control of three copies of the PPRE (Peroxisome Proliferator Response Element) derived from Acyl-CoA oxidase gene fused upstream to the herpes simplex thymidine kinase (TK) promoter, as described. […] Transient transfection assays were carried out as described in ref. [44]. […] In this case, the experiments were carried out into basal HEK293T cells and the RSV-β-Gal plasmid was used as control for transfection efficiency. […] The wild type and mutant PPARγ containing expression vectors were kindly provided by Dott. Takuma Shiraki. At least three independent experiments were performed for each transfection carried out in duplicate. Luciferase activity was normalized to β-galactosidase activity and reported as fold-induction.

PPARγ1 C285A mutant = target: T4, PPARγ1 C285A mutant (Homo sapiens, UniProt P37231, C313A); assay: PPRE-luciferase transactivation in HEK293T cells co-transfected with PPARγ1 C285A mutant; assay type: cell-based; settings: C285A mutant versus wild type receptor, 24 h
T4 construct: expressed in transfected cells; host or cells: HEK293T (transient); vectors from Takuma Shiraki
T4 sequence (P37231 1-477 isoform P37231-2 C285A): T3 sequence (P37231 1-477 isoform P37231-2) with C285A
Excerpt: (b) Human HEK293T cells were co-transfected with the PPRE-luciferase reporter gene and the wild-type PPARγ1 or its mutant version (C285A).
as §3

Hsp60 [2] = target: T2, Hsp60; assay: MS-based peptide mapping of Hsp60 incubated with 1; settings: trypsin digestion, LC-MS/MS
Protocol: PPARγ-LBD and Hsp60 were incubated with a 2:1 molar excess of 1 under stirring for 15 min in PBS at 37 °C. Eluted proteins were loaded on a mono-dimensional 12% SDS-PAGE, stained with Brilliant Blue G-Colloidal, reduced, and digested by trypsin. The resulting fragments were extracted and analyzed by LC-MS/MS using the same instrument and protocol described before. Peptide identification was performed by MS and MS/MS data using Mascot (Matrix Science) to interrogate the Swiss Prot non-redundant protein database.

C=C1C(=O)C23CCC4C(C(=O)OC)CC(O)CC4(C)C2CCC1C3 (centres unmarked) [Compound 1, 15-ketoatractyligenin methyl ester]
Kd (PPARγ LBD): 39.2 ± 3.9 nM
affinity towards Hsp60 (Hsp60 [1]): no affinity
effect of detergent on transactivation activity profile (PPARγ1; 0.001% Tween 20 in the medium): not find any variation in the bell-shaped activity profile
concentration at peak of luciferase activity (PPARγ1; 24 h treatment, HEK293 stably expressing PPARγ): 1 µM
transactivation activity lower than Rosiglitazone (PPARγ1; 24 h treatment, relative to Rosiglitazone): about 40%
type of PPARγ agonism (PPARγ1; transactivation assay): partial agonist
luciferase activity with C285A mutant (PPARγ1 C285A mutant): even lower luciferase activity
covalent modification of Hsp60 (Hsp60 [2]): no peptide covalently modified
